Marks after values point to notes of the source that are not given here.
Key:
[1] = rabbit, in vivo
[2] = rabbit, in vivo; remark: listed apart in the source

## Monosulphate Heptadodecyl Sucrose [S12, reference compound]
[1]
  Number of animals demonstrating a detectable adverse local reaction four weeks after the first immunization: 1/6 (redness)
  Number of animals demonstrating a detectable adverse local reaction one week after the second immunization: 2/6 (redness/swelling)
[2]
  Body temperature one day after the first immunization, Mean: 39.4^a ° C.
  Body temperature one day after the second immunization, Mean: 39.7^a ° C.
  rise in body temperature one day after the first and second immunization: about 0.5 °C

Source: patent US10342867B2 (priority 2014, dated 2019)
